Experimental data from the Kinase Knowledgebase extract (Sharma et al. 2016).

Molecular target: MAPK14 (human) (UniProt Q16539)
Experiment: Inhibition of MAPK14 Kinase Activity

Sequence of MAPK14 (human) (Q16539 whole entry, looked up): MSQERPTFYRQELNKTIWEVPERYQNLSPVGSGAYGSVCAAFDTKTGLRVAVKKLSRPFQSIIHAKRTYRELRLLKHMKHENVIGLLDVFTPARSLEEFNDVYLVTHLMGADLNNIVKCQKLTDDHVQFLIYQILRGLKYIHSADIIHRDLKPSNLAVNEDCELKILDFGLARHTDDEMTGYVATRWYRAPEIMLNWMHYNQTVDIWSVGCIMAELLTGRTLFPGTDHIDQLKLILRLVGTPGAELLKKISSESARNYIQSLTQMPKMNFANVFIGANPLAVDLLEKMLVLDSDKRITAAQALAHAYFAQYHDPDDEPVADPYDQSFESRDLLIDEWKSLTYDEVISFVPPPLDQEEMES

IC50, ≤ 5 µM:
CC(C)Cn1c(N)nc2ccc(-c3[nH]c(-c4c(F)cccc4F)nc3-c3ccccc3)cc21
Cc1ccsc1-c1nc(-c2ccc3nc(N)n(CC(C)C)c3c2)c(-c2ccccc2)[nH]1
Nc1nc2ccc(-c3[nH]c(-c4c(F)cccc4F)nc3-c3ccccc3)cc2n1CC1CCCCC1
CC(C)Cn1c(N)nc2ccc(-c3[nH]c(C(F)(F)F)nc3-c3ccccc3)cc21
CC(C)(C)Cn1c(N)nc2ccc(-c3[nH]c(C4CC4)nc3-c3ccccc3)cc21
CC(C)Cn1c(N)nc2ccc(-c3cn[nH]c3-c3ccc(F)cc3)cc21
CC(C)Cn1c(N)nc2ccc(-c3[nH]c(-c4c(F)cccc4Cl)nc3-c3ccccc3)cc21
Nc1nc2ccc(-c3nc(-c4c(F)cccc4Cl)[nH]c3-c3ccccc3)cc2n1CC1CC1
Cc1nc2ccc(-c3nc(-c4c(F)cccc4F)[nH]c3-c3ccccc3)cc2n1CC(C)C
CC(C)(C)Cn1c(N)nc2ccc(-c3[nH]c(-c4c(F)cccc4Cl)nc3-c3ccccc3)cc21
CC(C)n1c(N)nc2ccc(-c3[nH]c(-c4c(F)cccc4F)nc3-c3ccccc3)cc21
CC(C)Cn1c(N)nc2ccc(-c3[nH]c(-c4c(Cl)cccc4Cl)nc3-c3ccc(F)cc3F)cc21
CC(C)Cn1c(N)nc2ccc(-c3c(-c4ccccc4)nc(C4CCCCC4)n3C)cc21
Cc1nc2ccc(-c3cn[nH]c3-c3ccc(F)cc3)cc2n1CC(C)C
Nc1nc2ccc(-c3nc(C4CC4)[nH]c3-c3ccc(F)cc3F)cc2n1CC1CC1
CC(C)n1cnc2ccc(-c3n[nH]nc3-c3ccccc3)cc21
CC(C)Cn1c(N)nc2ccc(-c3[nH]c(-c4c(F)cc(OCCN5CCCC5)cc4F)nc3-c3ccccc3)cc21
CC(C)Cn1c(N)nc2ccc(-c3[nH]c(C4CC4)nc3-c3ccc(F)cc3)cc21
CC(C)Cn1c(N)nc2ccc(-c3[nH]c(-c4c(F)cccc4Cl)nc3-c3ccc(F)cc3F)cc21
CC(C)n1c(N)nc2ccc(-c3n[nH]nc3-c3ccccc3)cc21
Cc1nc(-c2ccc(F)cc2F)c(-c2ccc3nc(N)n(C(C)C(C)C)c3c2)[nH]1 (stereo not given)
CC(C)Cn1c(N)nc2ccc(-c3nc(-c4c(C(F)(F)F)cccc4C(F)(F)F)[nH]c3-c3ccccc3)cc21
CC(C)Cn1c(N)nc2ccc(-c3[nH]c(-c4ccccc4C(F)(F)F)nc3-c3ccc(F)cc3)cc21
Cc1nc(-c2ccc(F)cc2F)c(-c2ccc3ncn(CC(C)C)c3c2)[nH]1
C[C@@H](n1c(N)nc2ccc(-c3[nH]c(-c4c(F)cccc4Cl)nc3-c3ccccc3)cc21)C(C)(C)C
CC(C)n1c(N)nc2ccc(-c3[nH]c(-c4ccccc4)nc3-c3ccccc3)cc21
C[C@H](n1c(N)nc2ccc(-c3[nH]c(-c4c(F)cccc4Cl)nc3-c3ccccc3)cc21)C(C)(C)C
Nc1nc2ccc(-c3nc(-c4c(F)cccc4C(F)(F)F)[nH]c3-c3ccccc3)cc2n1CC1CC1
CC(C)Cn1c(N)nc2ccc(-c3[nH]c(-c4c(F)cccc4C(F)(F)F)nc3-c3ccccc3)cc21
CC(C)(C)Cn1c(N)nc2ccc(-c3[nH]c(C(C)(C)C)nc3-c3ccc(F)cc3F)cc21
